Measured values as given in publication PMC6272646, “Understanding the Physicochemical Properties of Mitragynine, a Principal Alkaloid of Mitragyna speciosa, for Preclinical Evaluation” (Molecules, 2015).
Like-named read-outs stand apart in the source and are kept apart here.

What was measured:
[1] = pKa determination, microplate spectrophotometer method; format: physicochemical; conditions: aqueous buffer
Source text: The instruments employed were UV spectrophotometer 8453 UV-Vis Diode Array (Agilent, Santa Clara, CA, USA), and Multiskan* GO Microplate Spectrophotometer (Thermo Scientific, Waltham, MA, USA). Data were captured using the Thermo Scientific SkanIt Software (Thermo Scientific, Version 3.2). Buffer Maker Software (version 1.0.1.55, BPP Marcin Borkowski, Marki, Poland,) was used for preparation of buffers with constant ionic strength for pKa determination. The pH-meter employed throughout the study was a PH 211 Hanna (Padova, Italy) equipped with a combined glass electrode.
pKa determination was carried out using conventional UV and microplate spectrophotometer methods. Acetic acid, tris base and sodium carbonate were used to prepare stable buffers in the pH range of 3 to 12. The buffers were prepared to give a final buffer molarity of 0.01 M. Either NaOH or HCl were used for pH adjustment of the various buffers, whose ionic strength was kept constant at 0.02 by addition of NaCl.
Stock solution of mitragynine at 0.5 mg/mL was prepared in acetonitrile. Ten microliters of the stock solution was transferred into individual test tubes and diluted with 1.0 mL buffer of various pH to give a final concentration of 5 μg/mL. For absorbance spectrum analysis, 250 μL of the various pH buffer solutions spiked with drug were placed in a 96-well quartz UV-transparent microplate and immediately scanned in the range of 200–400 nm at a scanning rate of 200 nm/s in triplicates. The pKa was calculated with equation pKa = pH + log (d − dm/di − d), for basic compound, where di is the absorbance of the ionised species, d is the absorbance of the solution tested and dm is the absorbance of the neutral species.

[2] = Stability in buffers pH 4, 7, 9 (percentage recovered); format: physicochemical; conditions: for percentage recovered: 20 µg/mL
Protocol: (§1) The HPLC system consisted of a Jasco delivery pump (Tokyo, Japan) equipped with autosampler connected to a Waters 2487 detector (Milford, MA, USA) coupled to Jasco Chromnav software (Version 2.0, Tokyo, Japan). Chromatographic separation was performed on a C8 Agilent Eclipse plus (4.6 mm i.d. × 250 mm, 5-μm particle size; Apple Valley, MN, USA). The HPLC-UV method was adapted from our previous study and revalidated for the present HPLC system. The method was employed to quantify mitragynine in partition coefficient, stability, dissolution and solubility studies.
For solubility studies, an excess of mitragynine was added to 1.0 mL each of distilled water or buffers at pH 4, 7 and 9. The test tubes were placed in a water bath shaker at 37 degrees Celsius at 100 cycles/min for 48 h until equilibrium. The samples were centrifuged at 3000 rpm for 5 min and supernatant was taken for quantification of mitragynine by HPLC-UV. […] A 0.1 mL aliquot was collected from each buffer system at intervals of 0, 0.5, 6.0 and 24.0 h for determination of mitragynine. Mitragynine concentrations were expressed as percentage recovered. All experiments were performed in triplicates.

[3] = n-octanol/water partition coefficient (logP, logD); format: physicochemical; conditions: for logD: read-out: Calculated n-octanol/water partition coefficient (logD)
Protocol: as §1
Lipophilicity of mitragynine was determined by n-octanol/water partition coefficient (P) using the method described by Low et al.. The distribution coefficient (log D) was determined in a similar manner to logP but instead of using water, buffers with a specific pH (4, 7, and 9) were used.

[4] = In vitro release (dissolution) from capsules filled with mitragynine pure standard; format: physicochemical; conditions: up to 2 h, capsule, basket method, 50 rpm, 37 °C
Protocol: Hard shell gelatin capsules filled with mitragynine pure standard were used in the in vitro dissolution study. In order to characterize the release of mitragynine, drug release profile was generated, in which mitragynine release values were determined as a function of time. The US pharmacopoeia I (basket) method was used for the in vitro dissolution study. SGF (pH 1.2) and SIF (pH 6.8) were prepared without enzymes. These media were used for the dissolution study, respectively. The capsule filled with mitragyine was introduced into 500 mL of dissolution medium. The capsule was agitated at 50 rpm at 37 °C. An aliquot (1 mL) of sample was withdrawn at predetermined time intervals of 5, 10, 15, 30, 40, 60, 90 and 120 min after onset of the dissolution. The samples were filtered through 0.45 um PTFE syringe filters, diluted with ACN (1:1) and the drug concentration was determined by the validated RP-HPLC-UV method. Samples were analyzed along with QC samples.

rats = test system: rats; design: method as in Macko et al, 15; conditions: mitragynine salt solution, ref Macko et al, 15; cited from earlier work
rodents = test system: rodents; design: method as in PMID 4626477; conditions: cited from earlier work
opiate receptor = test system: opiate receptor; design: method as in ref 29 = [29]; 29. Watanabe K. Yano S. Horie S. Yamamoto L.T. Takayama H. Aimi N. Sakai S. Ponglux D. Tongroach P. Shan J. Pharmacological properties of some structurally related indole alkaloids contained in the As; conditions: cited from earlier work
[5] = Stability in simulated gastric fluid (SGF, with enzymes); conditions: for Concentration Found in SGF: SGF pH ~1.2 with pepsin, 37 °C

CC[C@@H]1CN2CCc3c([nH]c4cccc(OC)c34)[C@@H]2C[C@@H]1/C(=C\OC)C(=O)OC [mitragynine]
pKa ([1]; Microplate Spectrophotometer, Day 1, read-out: pKa, interday repeatability): 8.18 | pKa ([1]; Microplate Spectrophotometer, Day 2, read-out: pKa, interday repeatability): 8.1 | pKa ([1]; Microplate Spectrophotometer, Day 3, read-out: pKa, interday repeatability): 8.12 | pKa ([1]; pH 7.55, target pH 7.6, actual pH 7.55, 5 µg/mL, 248 nm, read-out: pKa): 8.09 | pKa ([1]; pH 7.6, microplate method, mean over pH 7.6-9.0, read-out: pKa (Mean ± SD)): 8.08 ± 0.04 | pKa ([1]; pH 7.76, target pH 7.8, actual pH 7.76, 5 µg/mL, 248 nm, read-out: pKa): 8.11 | pKa ([1]; pH 7.94, target pH 8.0, actual pH 7.94, 5 µg/mL, 248 nm, read-out: pKa): 8.03 | pKa ([1]; pH 8.15, target pH 8.2, actual pH 8.15, 5 µg/mL, 248 nm, read-out: pKa): 8.09 | pKa ([1]; pH 8.32, target pH 8.4, actual pH 8.32, 5 µg/mL, 248 nm, read-out: pKa): 8.1 | pKa ([1]; pH 8.5, target pH 8.6, actual pH 8.50, 5 µg/mL, 248 nm, read-out: pKa): 8.03 | pKa ([1]; pH 8.66, target pH 8.8, actual pH 8.66, 5 µg/mL, 248 nm, read-out: pKa): 8.15 | pKa ([1]; pH 8.8, target pH 9.0, actual pH 8.80, 5 µg/mL, 248 nm, read-out: pKa): 8.06 | stability in buffer (in words) ([2]; pH 4): appears to degrade over time | percentage recovered ([2]; pH 4 buffer, 0.5 h): 100.6 ± 0.3% | percentage recovered ([2]; pH 4 buffer, 6 h): 91.8 ± 1.0% | percentage recovered ([2]; pH 4 buffer, 24 h): 88.8 ± 1.4% | stability in buffer (in words) ([2]; pH 7 and 9, 24 h): stable | percentage recovered ([2]; pH 7 buffer, 0.5 h): 99.2 ± 0.4% | percentage recovered ([2]; pH 7 buffer, 6 h): 96.1 ± 1.9% | percentage recovered ([2]; pH 7 buffer, 24 h): 101.9 ± 0.9% | percentage recovered ([2]; pH 9 buffer, 0.5 h): 101.3 ± 2.6% | percentage recovered ([2]; pH 9 buffer, 6 h): 97.8 ± 0.3% | percentage recovered ([2]; pH 9 buffer, 24 h): 95.5 ± 2.5% | logD ([3]; n-octanol/buffer pH 4, pH 4): 0.78 | logD ([3]; n-octanol/buffer pH 7, pH 7): 1.73 | logD ([3]; n-octanol/buffer pH 9, pH 9): 1.56 | logP ([3]; n-octanol/water, read-out: Calculated n-octanol/water partition coefficient (logP)): 1.7 | Mitragynine Content in buffer layer ([3]; octanol / buffer pH 4): 2.98 µg/mL | Mitragynine Content in octanol layer ([3]; octanol / buffer pH 4): 17.97 µg/mL | Mitragynine Content in buffer layer ([3]; octanol / buffer pH 7): 0.38 µg/mL | Mitragynine Content in octanol layer ([3]; octanol / buffer pH 7): 20.54 µg/mL | Mitragynine Content in buffer layer ([3]; octanol / buffer pH 9): 0.51 µg/mL | Mitragynine Content in octanol layer ([3]; octanol / buffer pH 9): 18.45 µg/mL | Mitragynine Content in aqueous layer ([3]; octanol / water): 0.42 µg/mL | Mitragynine Content in octanol layer ([3]; octanol / water): 20.74 µg/mL | drug released (dissolution) ([4]; SGF pH 1.2 without enzymes): 80% | drug released (dissolution) ([4]; SIF pH 6.8 without enzymes): 22% | dose up to which no adverse reactions were reported (rats): 806 mg/kg | dose levels with no toxicity (rodents): 800 to 900 mg/kg | antinociceptive effect, potency compared with M. speciosa crude extract (opiate receptor): less potent than the M. speciosa crude extract | Concentration Found in SGF ([5]; 0 min): 18720 ± 50 ng/mL | RD (relative difference vs time 0) in SGF ([5]; 10 min): −0.21% | Concentration Found in SGF ([5]; 10 min): 18680 ± 230 ng/mL | RD (relative difference vs time 0) in SGF ([5]; 20 min): −20.00% | Concentration Found in SGF ([5]; 20 min): 14980 ± 880 ng/mL | RD (relative difference vs time 0) in SGF ([5]; 30 min): −22.5% | Concentration Found in SGF ([5]; 30 min): 14540 ± 580 ng/mL | Concentration Found in SGF ([5]; 40 min): 14190 ± 370 ng/mL | RD (relative difference vs time 0) in SGF ([5]; 50 min): −24.19% | Concentration Found in SGF ([5]; 50 min): 14110 ± 220 ng/mL | RD (relative difference vs time 0) in SGF ([5]; 60 min): −25.53% | Concentration Found in SGF ([5]; 60 min): 13940 ± 200 ng/mL | stability in SGF (in words) ([5]; SGF pH ≈ 1.2, 37 °C): not stable | relative deviation / drug loss in SGF ([5]; from the 20 min time point onwards): greater than 20%
